Data on 11 compounds can be found in ChEMBL document CHEMBL1201862, “PubChem BioAssay data set” (2004).

In general, GI50 refers to the concentration that inhibits growth by half.

Among the test systems are 786-0; A549; EKVX; HCT-116; HCT-15; HOP-62; LOX IMVI; NCI-H460; NCI/ADR-RES; OVCAR-5; OVCAR-8; SK-MEL-28; SK-MEL-5; SNB-75; TK-10; UACC-257; UACC-62; HOP-92; Malme-3M; RXF 393.
Test in all cases: DTP human tumour cell line panel, 48 h

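Five concentrations, 48 hours, 96-well plates. Abbreviation: GI50, concentration required for 50% inhibition of growth.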 Calls of active or inactive are those of the source. No stated cut-off is given here; in the data, active = GI50 up to about 1.1 µM and inactive = higher.

With `Cn1c(=O)c2c(ncn2Cc2ccc(O)c([N+](=O)[O-])c2)n(C)c1=O`, the GI50 in the experiment on 786-0 is > 100 µM (inactive); in the experiment with A549, > 100 µM (inactive); in the experiment with EKVX, > 100 µM (inactive); in the experiment with HCT-116, > 100 µM (inactive); in the experiment on HCT-15, over 100 µM; in the experiment on HOP-62 it was > 100 µM (inactive). Also, the GI50 with LOX IMVI, in the experiment on NCI-H460, in the experiment on NCI/ADR-RES, in the experiment on OVCAR-5, in the experiment on OVCAR-8 and in the experiment with SK-MEL-28 was > 100 µM (inactive) each time. For the same compound, the GI50 in the experiment on SK-MEL-5, in the experiment with SNB-75, in the experiment on TK-10, in the experiment with UACC-257 and with UACC-62 was > 100 µM (inactive) throughout.

Turning to `COc1cc([C@@H]2c3cc4c(cc3[C@@H](NCc3cccc(C#N)c3)C3COC(=O)[C@@H]32)OCO4)cc(OC)c1O` (stereo partly specified), the GI50 in the experiment on 786-0 is 1.02 µM (active); in the experiment on A549 it was 0.0815 µM (active); in the experiment with EKVX, 2.39 µM (inactive); in the experiment with HCT-116, 2.12 µM (inactive); with HCT-15 it was 1.17 µM; with HOP-62, 0.439 µM (active). The GI50 in the experiment on HOP-92 is 1.32 µM (inactive); in the experiment on LOX IMVI, 1.27 µM (inactive); with Malme-3M, 2.18 µM (inactive); in the experiment on NCI-H460, 0.0356 µM (active); in the experiment with OVCAR-5, 2.84 µM (inactive); in the experiment with OVCAR-8, 1.43 µM (inactive). Further, the GI50 in the experiment with RXF 393 was 2.34 µM (inactive); in the experiment with SK-MEL-28 it was 3.32 µM (inactive); in the experiment with SK-MEL-5 it was 2.02 µM (inactive); in the experiment on SNB-75, 1.06 µM (active); with TK-10, 2.39 µM (inactive); with UACC-257, 6.64 µM (inactive). Moreover, the GI50 with UACC-62 is 0.524 µM (active).

Turning to `Cc1cc(=O)n(-c2c(C)cccc2Cl)c(/C=C(\O)c2ccncc2)n1`, the GI50 in the experiment with 786-0 was > 100 µM (inactive); with A549 it was > 100 µM (inactive); in the experiment with EKVX, > 100 µM (inactive); with HCT-116 it was > 100 µM (inactive); in the experiment with HCT-15, over 100 µM; with HOP-62 it was > 100 µM (inactive). Also, the GI50 in the experiment with HOP-92 was 62.1 µM (inactive); with LOX IMVI it was > 100 µM (inactive); in the experiment on Malme-3M it was > 100 µM (inactive); in the experiment on NCI-H460, > 100 µM (inactive); with OVCAR-5 it was 98.6 µM (inactive); in the experiment with OVCAR-8 it was > 100 µM (inactive). The GI50 in the experiment on RXF 393 is > 100 µM (inactive); in the experiment on SK-MEL-28 it was > 100 µM (inactive); in the experiment on SK-MEL-5, 96.4 µM (inactive); with SNB-75 it was 29.4 µM (inactive); in the experiment with TK-10 it was > 100 µM (inactive); in the experiment on UACC-257 it was > 100 µM (inactive). The GI50 with UACC-62 is > 100 µM (inactive).

As for `CC1CC/C(=C\c2ccc(F)cc2)C2=C1C(c1ccc(F)cc1)NC(=S)N2` (stereo unspecified), the GI50 in the experiment on 786-0 is 63.4 µM (inactive); with EKVX, 12.9 µM (inactive); in the experiment with HCT-116, 32.9 µM (inactive); in the experiment with HCT-15, 41 µM; in the experiment on LOX IMVI, 48.2 µM (inactive); in the experiment on Malme-3M, 36.7 µM (inactive). Further, the GI50 was 20.4 µM (inactive) with NCI-H460; 53.6 µM (inactive) in the experiment with NCI/ADR-RES; 86.7 µM (inactive) in the experiment with OVCAR-8; 25.2 µM (inactive) with RXF 393; 88.3 µM (inactive) with SK-MEL-28; 31 µM (inactive) in the experiment with SK-MEL-5. Besides, the GI50 is 79.3 µM (inactive) in the experiment on TK-10, 43.2 µM (inactive) in the experiment on UACC-257 and > 100 µM (inactive) in the experiment with UACC-62.

For `CC1=C(NC(=O)C(=O)NNC(=O)c2ccncc2)C(=O)c2ccccc2C1=O`, the GI50 with 786-0 is 18.2 µM (inactive); with A549 it was 13.6 µM (inactive); in the experiment with EKVX it was 13.5 µM (inactive); in the experiment with HCT-116 it was 11.4 µM (inactive); in the experiment on HCT-15 it was 12.4 µM; in the experiment with HOP-62 it was 17.5 µM (inactive). Further, the GI50 is 15.5 µM (inactive) in the experiment on HOP-92; 3.66 µM (inactive) with LOX IMVI; 5.26 µM (inactive) in the experiment with Malme-3M; 4.44 µM (inactive) in the experiment on NCI-H460; 17 µM (inactive) in the experiment on OVCAR-5; 18.4 µM (inactive) with OVCAR-8. For the same compound, the GI50 is 15.4 µM (inactive) with RXF 393; 17.3 µM (inactive) in the experiment on SK-MEL-28; 1.98 µM (inactive) with SK-MEL-5; 17.4 µM (inactive) in the experiment with SNB-75; 45.2 µM (inactive) in the experiment on TK-10; 9.77 µM (inactive) in the experiment on UACC-257. Besides, the GI50 in the experiment on UACC-62 was 2.52 µM (inactive).

Turning to `CCCCOC(=O)/C(CC(=O)C=C(C)C)=N\NS(=O)(=O)c1ccc(C)cc1`, the GI50 in the experiment with 786-0 is > 100 µM (inactive); in the experiment with A549 it was > 100 µM (inactive); in the experiment on EKVX, > 100 µM (inactive); in the experiment on HCT-116 it was > 100 µM (inactive); with HCT-15, 62.4 µM; in the experiment with HOP-62, > 100 µM (inactive). Further, the GI50 with HOP-92 was > 100 µM (inactive); in the experiment with LOX IMVI, 71.3 µM (inactive); with Malme-3M, > 100 µM (inactive); in the experiment with NCI-H460, > 100 µM (inactive); in the experiment on OVCAR-5, > 100 µM (inactive); with OVCAR-8, > 100 µM (inactive). Further, the GI50 with RXF 393, in the experiment on SK-MEL-28, in the experiment with SK-MEL-5, with SNB-75, with TK-10 and with UACC-257 was > 100 µM (inactive) in each case. Besides, in the experiment with UACC-62, the GI50 is > 100 µM (inactive).

Consider `CC(=O)N1CC2Nc3ccccc3C2CC1CO` (stereo unspecified), for which the GI50 with 786-0 was > 100 µM (inactive); with A549, > 100 µM (inactive); in the experiment on EKVX it was > 100 µM (inactive); in the experiment on HCT-116 it was > 100 µM (inactive); in the experiment on HCT-15, over 100 µM; in the experiment on HOP-62, > 100 µM (inactive). Further, the GI50 with HOP-92, with LOX IMVI, in the experiment on Malme-3M, with NCI-H460, with OVCAR-5 and in the experiment on OVCAR-8 was > 100 µM (inactive) in each case. The GI50 was > 100 µM (inactive) with RXF 393; > 100 µM (inactive) with SK-MEL-28; > 100 µM (inactive) in the experiment with SK-MEL-5; 17.7 µM (inactive) with SNB-75; > 100 µM (inactive) with TK-10; > 100 µM (inactive) in the experiment on UACC-257. The GI50 in the experiment on UACC-62 was > 100 µM (inactive).

For `CC(=O)NC(Cc1ccc(OP(=O)(OCc2ccc([N+](=O)[O-])o2)N(C)CCCCCl)cc1)C(=O)NC(C)c1ccc(OCC2CCCCC2)c(C(N)=O)c1` (stereo unspecified), the GI50 is 3.37 µM (inactive) in the experiment on 786-0; 4.12 µM (inactive) in the experiment on A549; 2.36 µM (inactive) in the experiment with HCT-116; 20.4 µM in the experiment on HCT-15; 9.66 µM (inactive) with HOP-62; 1.97 µM (inactive) in the experiment on LOX IMVI. For the same compound, the GI50 in the experiment with Malme-3M was 1.88 µM (inactive); in the experiment on NCI-H460, 3.44 µM (inactive); in the experiment with NCI/ADR-RES it was 31.2 µM (inactive); in the experiment with OVCAR-5 it was 7.35 µM (inactive); in the experiment on OVCAR-8 it was 7.48 µM (inactive); in the experiment with RXF 393, 2.02 µM (inactive). The GI50 in the experiment on SK-MEL-28 was 2.12 µM (inactive); in the experiment on SK-MEL-5 it was 1.61 µM (inactive); with TK-10 it was 11.4 µM (inactive); with UACC-257, 1.93 µM (inactive); in the experiment on UACC-62 it was 2.31 µM (inactive).

On to `CCCNC(=O)C1C(=O)C(=O)N(CCC)C1=O` (stereo unspecified), for which the GI50 was > 100 µM (inactive) in the experiment with 786-0; > 100 µM (inactive) in the experiment on A549; > 100 µM (inactive) with EKVX; > 100 µM (inactive) in the experiment with HCT-116; over 100 µM in the experiment on HCT-15; > 100 µM (inactive) in the experiment on HOP-62. Also, the GI50 in the experiment on HOP-92 is > 100 µM (inactive); in the experiment with LOX IMVI it was > 100 µM (inactive); in the experiment with Malme-3M it was > 100 µM (inactive); in the experiment with NCI-H460, > 100 µM (inactive); in the experiment with OVCAR-5 it was 56.9 µM (inactive); in the experiment on OVCAR-8 it was > 100 µM (inactive). The GI50 in the experiment on RXF 393, in the experiment with SK-MEL-28, with SK-MEL-5, in the experiment with SNB-75, in the experiment with TK-10 and with UACC-257 was > 100 µM (inactive) in each case. Besides, the GI50 with UACC-62 was > 100 µM (inactive).

As to `CC1=C2C(=CC(C)(CO)C2O)C(=O)C(C)(O)C12CC2` (stereo unspecified), the GI50 with 786-0 was 0.00337 µM (active); with A549, 0.00254 µM (active); with EKVX, 0.0103 µM (active); with HCT-116, 0.00123 µM (active); in the experiment on HCT-15, 0.00197 µM; in the experiment with HOP-62, 0.00433 µM (active). The GI50 in the experiment with HOP-92 was 0.00255 µM (active); in the experiment on LOX IMVI, 0.00161 µM (active); in the experiment on Malme-3M, 0.00361 µM (active); in the experiment on NCI-H460, 0.000668 µM (active); in the experiment with OVCAR-5, 0.00673 µM (active); in the experiment on OVCAR-8, 0.00286 µM (active). For the same compound, the GI50 in the experiment on RXF 393 is 0.00163 µM (active); in the experiment on SK-MEL-28, 0.00425 µM (active); with SK-MEL-5, 0.00108 µM (active); with SNB-75 it was 0.00395 µM (active); in the experiment with TK-10 it was 0.00719 µM (active); in the experiment with UACC-257, 0.00249 µM (active). Besides, the 50% growth inhibitory concentration (GI50) in the experiment on UACC-62 is 0.00286 µM (active).

With `O=c1c(O)c(-c2ccc(O)c(O)c2)oc2cc(O)ccc12` [FISETIN], the GI50 in the experiment with 786-0 is 24.8 µM (inactive); with A549, 30.3 µM (inactive); in the experiment with EKVX, 25.4 µM (inactive); in the experiment on HCT-116 it was 16.3 µM (inactive); in the experiment on HCT-15, 14.4 µM; in the experiment with HOP-62, 20.2 µM (inactive). In addition, the GI50 in the experiment on HOP-92 was 28.2 µM (inactive); with LOX IMVI, 13.6 µM (inactive); with Malme-3M, 20.4 µM (inactive); in the experiment with NCI-H460, 8.05 µM (inactive); in the experiment on OVCAR-5, 17.2 µM (inactive); in the experiment with OVCAR-8 it was 21.8 µM (inactive). The GI50 was 23.9 µM (inactive) with RXF 393; 21.7 µM (inactive) in the experiment with SK-MEL-28; 13.1 µM (inactive) in the experiment on SK-MEL-5; 5.27 µM (inactive) with SNB-75; 29.7 µM (inactive) in the experiment on TK-10; 22.3 µM (inactive) in the experiment with UACC-257. Also, in the experiment with UACC-62, the GI50 was 10.7 µM (inactive).
